Each structure is given as a SMILES string.

Test system in the first series: not listed separately
Kind of series: Partition coefficient (logD6.5). The following applies: octanol/water, pH 6.5.
For `CCCC[C@H](O[C@@H](Cc1ccccc1)C(=O)N1CCC(OCOC)CC1)C(=O)N[C@@H](CC1CCCCC1)[C@@H](O)C[C@H](NC(=O)OCCc1ccccn1)C(C)C`, the logD (commonly the decadic logarithm of the distribution of all forms, ionised or not, between an organic phase and buffer at a given pH) was determined as 2.7.
Still for that read-out and setting: with `CCCC[C@H](O[C@@H](Cc1ccccc1)C(=O)N1CCC(OCOC)CC1)C(=O)N[C@@H](CC1CCCCC1)[C@@H](O)C[C@H](C(=O)NCCN(C)C)C(C)C` the figure was 3.3.
For `CCCC[C@H](O[C@@H](Cc1ccccc1)C(=O)N1CCC(OCOC)CC1)C(=O)N[C@@H](CC1CCCCC1)[C@@H](O)C[C@H](C(=O)NCCc1ccccn1)C(C)C`, the logD is more than 5.

Test system in another series: not listed separately
Put plainly: Partition coefficient (logD7.4). The following applies: octanol/water, pH 7.4.
As to `CCCC[C@H](O[C@@H](Cc1ccccc1)C(=O)N1CCC(OCOC)CC1)C(=O)N[C@@H](CC1CCCCC1)[C@@H](O)C[C@H](NC(=O)OCCc1ccccn1)C(C)C`, the logD is 3.4.
On the same count and under the same terms, with `CCCC[C@H](O[C@@H](Cc1ccccc1)C(=O)N1CCC(OCOC)CC1)C(=O)N[C@@H](CC1CCCCC1)[C@@H](O)C[C@H](C(=O)NCCN(C)C)C(C)C` the figure was 4.3; with `CCCC[C@H](O[C@@H](Cc1ccccc1)C(=O)N1CCC(OCOC)CC1)C(=O)N[C@@H](CC1CCCCC1)[C@@H](O)C[C@H](C(=O)NCCc1ccccn1)C(C)C`, more than 5.

For the next series, the target named is T1, Renin (Homo sapiens, UniProt P00797).
T1 sequence (P00797 whole entry): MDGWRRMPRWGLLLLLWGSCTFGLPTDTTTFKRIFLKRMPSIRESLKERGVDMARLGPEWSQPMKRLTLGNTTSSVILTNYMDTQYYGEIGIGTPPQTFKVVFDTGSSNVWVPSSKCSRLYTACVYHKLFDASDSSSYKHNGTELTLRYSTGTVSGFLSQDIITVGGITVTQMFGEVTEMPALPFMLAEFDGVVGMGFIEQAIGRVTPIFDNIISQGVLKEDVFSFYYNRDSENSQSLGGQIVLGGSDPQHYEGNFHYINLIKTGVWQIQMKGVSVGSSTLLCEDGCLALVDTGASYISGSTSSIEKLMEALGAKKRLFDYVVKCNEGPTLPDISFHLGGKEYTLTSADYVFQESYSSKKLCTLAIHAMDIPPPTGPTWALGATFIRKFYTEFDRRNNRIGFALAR
It counts as cell-free, Plasma.
Details: not given
With `CCCOC(=O)N[C@@H](C[C@H](O)[C@H](CC1CCCCC1)NC(=O)[C@H](Cc1cnc[nH]1)NC(=O)[C@H](Cc1ccccc1)NC(=O)OC(C)(C)C)C(C)C`, the IC50 (commonly the point on the concentration scale where inhibition reaches its midpoint) stood at 16 nM.
On to `CCCC[C@H](N[C@@H](Cc1ccccc1)C(=O)N1CCC(OCOC)CC1)C(=O)N[C@@H](CC1CCCCC1)[C@@H](O)C[C@H](C(=O)NCCCn1ccnc1)C(C)C`, for which the IC50 turned out to be 7.6 nM.
`CCCC[C@H](O[C@@H](Cc1ccccc1)C(=O)N1CCC(OCOC)CC1)C(=O)N[C@@H](CC1CCCCC1)[C@@H](O)C[C@H](NC(=O)OCCN1CCCC1)C(C)C`: the IC50 turned out to be 13 nM.
Still for that read-out and setting: with `CCCC[C@H](O[C@@H](Cc1ccccc1)C(=O)N1CCC(OCOC)CC1)C(=O)N[C@@H](CC1CCCCC1)[C@@H](O)C[C@H](NS(C)(=O)=O)C(C)C` the figure was 61 nM.
For the compound `CCCC[C@H](O[C@@H](Cc1ccccc1)C(=O)N1CCC(OCOC)CC1)C(=O)N[C@@H](CC1CCCCC1)[C@@H](O)C[C@H](NC(=O)OCCC)C(C)C`, inhibition was half-maximal at 14 nM (IC50).
Still for that read-out and setting: next, `CCCC[C@H](O[C@@H](Cc1ccccc1)C(=O)N1CCC(OCOC)CC1)C(=O)N[C@@H](CC1CCCCC1)[C@@H](O)C[C@H](NC(=O)OCCc1ccccn1)C(C)C`: 40 nM; `CCCC[C@H](O[C@@H](Cc1ccccc1)C(=O)N1CCC(OCOC)CC1)C(=O)N[C@@H](CC1CCCCC1)[C@@H](O)C[C@H](C(=O)NCCN(C)C)C(C)C`: 5.7 nM.
The same measure, in the same setting: with `CCCC[C@H](O[C@@H](Cc1ccccc1)C(=O)N1CCC(OCOC)CC1)C(=O)N[C@@H](CC1CCCCC1)[C@@H](O)C[C@H](C(=O)NCCc1ccccn1)C(C)C` the figure was 5.1 nM.

For another series, the target named is T1, Renin. Kind of series: In vitro activity against human renin (pH 6.0).
Details: not given
In turn, `CCCOC(=O)N[C@@H](C[C@H](O)[C@H](CC1CCCCC1)NC(=O)[C@H](Cc1cnc[nH]1)NC(=O)[C@H](Cc1ccccc1)NC(=O)OC(C)(C)C)C(C)C` returned an IC50 of 1.7 nM.
Same read-out and setting: with `CCCC[C@H](N[C@@H](Cc1ccccc1)C(=O)N1CCC(OCOC)CC1)C(=O)N[C@@H](CC1CCCCC1)[C@@H](O)C[C@H](C(=O)NCCCn1ccnc1)C(C)C` the figure was 2 nM; with `CCCC[C@H](O[C@@H](Cc1ccccc1)C(=O)N1CCC(OCOC)CC1)C(=O)N[C@@H](CC1CCCCC1)[C@@H](O)C[C@H](NC(=O)OCCN1CCCC1)C(C)C`, 2.5 nM.
The same measure, in the same setting: with `CCCC[C@H](O[C@@H](Cc1ccccc1)C(=O)N1CCC(OCOC)CC1)C(=O)N[C@@H](CC1CCCCC1)[C@@H](O)C[C@H](NS(C)(=O)=O)C(C)C` the figure was 4.3 nM.
On the same count and under the same terms, next, `CCCC[C@H](O[C@@H](Cc1ccccc1)C(=O)N1CCC(OCOC)CC1)C(=O)N[C@@H](CC1CCCCC1)[C@@H](O)C[C@H](NC(=O)OCCC)C(C)C`: 1.5 nM.
On to `CCCC[C@H](O[C@@H](Cc1ccccc1)C(=O)N1CCC(OCOC)CC1)C(=O)N[C@@H](CC1CCCCC1)[C@@H](O)C[C@H](NC(=O)OCCc1ccccn1)C(C)C`, for which half-maximal inhibition (IC50) required 0.9 nM.
Still for that read-out and setting: with `CCCC[C@H](O[C@@H](Cc1ccccc1)C(=O)N1CCC(OCOC)CC1)C(=O)N[C@@H](CC1CCCCC1)[C@@H](O)C[C@H](C(=O)NCCN(C)C)C(C)C` the figure was 2.9 nM; with `CCCC[C@H](O[C@@H](Cc1ccccc1)C(=O)N1CCC(OCOC)CC1)C(=O)N[C@@H](CC1CCCCC1)[C@@H](O)C[C@H](C(=O)NCCc1ccccn1)C(C)C`, 1 nM.

The values above are taken from ChEMBL document CHEMBL1126033, “C-terminal modifications of nonpeptide renin inhibitors: improved oral bioavailability via modification of physicochemical properties” (J Med Chem, 1992).
